In patent EP0366632A1, “Alternative energy substrates” (priority 1988, dated 1990):

What was measured:
[1] = tested on: Candida albicans ATCC 10231; test: Microorganism count in 2% and 0.2% ester emulsions (Example 15); assay type: cell-based; settings: after 20 hours
Experimental: The emulsions contained egg-yolk phospholipid 1,2% and sterile water, in addition to ester. The emulsions were prepared aseptically, by emulsifying sterile-filtered ester with a sterilized dispersion of egg-yolk phospholipids.
Aliquots of these emulsions were diluted with phosphate buffer (0.01 M, pH=7.0) in the proportions of 1 and 10 and 1 and 100 of respective emulsions. Candida albicans ATCC 10231 was added to the emulsions. The samples were then incubated at +37°C for 20 hours. The microorganism count was carried out after […], 2 and 20 hours, in the manner described in microbiological literature. Parallel with the above tests, a check was made on phospholipide solution 1,2% and TSB (Tryptone soya broth) with additions Candida albicans ATCC 10231. The latter substrate was tested to ascertain whether or not the microorganisms were viable. After 20 hours, the microorganism count/ml in TSB was 10⁷, and in the phospholipid solution 10⁴. The starting concentration was about 10⁴. After 1-5 minutes, the microorganism count per […] of the tests containing 4-methyl-3-oxo-pentanoic acid ethyl ester with concentrations of 2% and 0.2% was 10⁴ and 10⁴ respectively. After 2 hours, the microorganism count was 10² and 10⁴ respectively, and after 20 hours 0 and 10⁴. […] After 20 hours, the count was 0 and 10² respectively.

[2] = design: species or system rabbits; settings: rabbit, in vivo
Experimental: Two rabbits weighing between 3.0-3.5 kg were infused intravenously (10 ml/kg body weight) with an emulsion containing 50 mg/ml of 4-methyl-3-oxo-pentanoic acid ethyl ester over a period of 5 minutes. Each rabbit received a dosage of 1.5-1.8 g over a 5 minute period. The emulsion was prepared aseptically, by emusifying sterile-filtered ester with a sterilized dispersion of egg-yolk phospholipids.
Three rabbits weighing 3.0-3.3 kg were infused intravenously (10 ml/kg body weight) with an emulsion containing 30 mg/ml of 4-methyl-3-oxo-pentanoic acid ethyl ester over a period of from 4 to 7 minutes. Each rabbit received a dosage of 0.9-1.05 g. The emulsion was prepared aseptically, by emulsifying sterile-filtered ester with a sterilized dispersion of egg-yolk phospholipids. […] The third rabbit remained normal during the whole of the infusion period. The two unconscious rabbits awakened about 2 minutes after completion of the infusion, and thereafter acted quite normally.

[3] = tested on: VSV (vesicular stomatitis virus); assay type: cell-based; settings: 0.1% in tissue cultures; A549, GMK and fibroblasts; Figure 2
[4] = Admixture of ester to distilled water and amino acid solution (Vamin N), 5 days at +5°C; assay type: physicochemical
Experimental: 6 g of egg-yolk phospholipids were dissolved in 50 g of 5-methyl-3-oxo-hexanoic acid ethyl ester and 4-methyl-3-oxo-pentanoic acid ethyl ester respectively, while applying and stirring the system. When clear solutions had been obtained, 34 g of absolute alcohol (about 99%) were added, corresponding to the least quantity required for the solutions to remain stable in cold conditions without precipitation of phospholipids. These solutions were autoclaved at +117°C for 20 minutes. Aliquots of these solutions were taken (0.2; 1.0; 3.0 and 5% calculated on ethyl ester) and added respectively to distilled water and to an amino acid solution with a concentration of 7.18% and 9.4 g nitrogen/l (Vamin^R N). Controls were run, in which a pure product of 5-methyl-3-oxo-hexanoic acid ethyl ester and 4-methyl-3-oxo-pen tanoic acidethyl ester respectively were added to distilled water and amino acid solution respectively. All samples were shaken for 10 seconds in a shaking apparatus of the type Whirlimixer^R. The samples were then permitted to stand for 5 calender days in cold conditions (+5°C) and were read-off daily under a daylight lamp, observations being made as to the acceptable quality of the resultant emulsions (visually) or to ascertain the presence or absence of oil droplets on the surface of the emulsions, or separation thereof. […]

CCOC(=O)CC(=O)C(C)C [4-methyl-3-oxo-pentanoic acid ethyl ester]
microorganism count [1]: 0 per ml | time after completion of the infusion until awakening [2]: about 2 minutes | time after completion of the infusion until consciousness regained [2]: about 2 minutes

CCOC(=O)CC(=O)CC(C)C [5-methyl-3-oxo-hexanoic acid ethyl ester]
microorganism count [1]: 0 per ml | suppression of replication of VSV [3]: replication can be inhibited | concentration to which the ester can be mixed (accepted samples) ([4]; free pure ester in amino acid solution (Vamin N)): 0.2% | concentration to which the ester can be mixed (accepted samples) ([4]; free pure ester in distilled water): 0.2%
